{
  "source": "ChEMBL document CHEMBL6096698",
  "about": "“Discovery of a Selective and Orally Bioavailable RET Degrader with Effectiveness in Various Mutations” (J Med Chem, 2025)",
  "key": {"BaF3 [1]": {"test_system": "BaF3", "assay": "Antiproliferative activity against mouse BaF3 cells stably expressing KIF5B-RET V804M mutant incubated for 72 hrs by CCK8 assay", "assay_type": "functional, cell-based", "settings": "BaF3, 72 h"}, "BaF3 [2]": {"test_system": "BaF3", "assay": "Antiproliferative activity against mouse BaF3 cells stably expressing KIF5B-RET G810C mutant incubated for 72 hrs by CCK8 assay", "assay_type": "functional, cell-based", "settings": "BaF3, 72 h"}, "BaF3 [3]": {"test_system": "BaF3", "assay": "Antiproliferative activity against mouse BaF3 cells stably expressing KIF5B-RET G810R mutant incubated for 72 hrs by CCK8 assay", "assay_type": "functional, cell-based", "settings": "BaF3, 72 h"}, "BaF3 [4]": {"test_system": "BaF3", "assay": "Antiproliferative activity against mouse BaF3 cells stably expressing KIF5B-RET G810S mutant incubated for 72 hrs by CCK8 assay", "assay_type": "functional, cell-based", "settings": "BaF3, 72 h"}, "BaF3 [5]": {"test_system": "BaF3", "assay": "Antiproliferative activity against mouse BaF3 cells stably expressing CCDC6-RET incubated for 72 hrs by CCK8 assay", "assay_type": "functional, cell-based", "settings": "BaF3, 72 h"}, "BaF3 [6]": {"test_system": "BaF3", "assay": "Antiproliferative activity against mouse BaF3 cells stably expressing CCDC6-RET V804M mutant incubated for 72 hrs by CCK8 assay", "assay_type": "functional, cell-based", "settings": "BaF3, 72 h"}, "BaF3 [7]": {"test_system": "BaF3", "assay": "Antiproliferative activity against mouse BaF3 cells stably expressing CCDC6-RET G810C mutant incubated for 72 hrs by CCK8 assay", "assay_type": "functional, cell-based", "settings": "BaF3, 72 h"}, "HeLa": {"test_system": "HeLa", "assay": "Cytotoxicity against human HeLa cells", "assay_type": "functional, cell-based"}, "A549": {"test_system": "A549", "assay": "Cytotoxicity against human A549 cells", "assay_type": "functional, cell-based"}, "BaF3 [8]": {"test_system": "BaF3", "assay": "Cytotoxicity against mouse BaF3 cells", "assay_type": "functional, cell-based"}, "[9]": {"target": "Proto-oncogene tyrosine-protein kinase receptor Ret (Homo sapiens, UniProt P07949)", "sequence (P07949 whole entry)": "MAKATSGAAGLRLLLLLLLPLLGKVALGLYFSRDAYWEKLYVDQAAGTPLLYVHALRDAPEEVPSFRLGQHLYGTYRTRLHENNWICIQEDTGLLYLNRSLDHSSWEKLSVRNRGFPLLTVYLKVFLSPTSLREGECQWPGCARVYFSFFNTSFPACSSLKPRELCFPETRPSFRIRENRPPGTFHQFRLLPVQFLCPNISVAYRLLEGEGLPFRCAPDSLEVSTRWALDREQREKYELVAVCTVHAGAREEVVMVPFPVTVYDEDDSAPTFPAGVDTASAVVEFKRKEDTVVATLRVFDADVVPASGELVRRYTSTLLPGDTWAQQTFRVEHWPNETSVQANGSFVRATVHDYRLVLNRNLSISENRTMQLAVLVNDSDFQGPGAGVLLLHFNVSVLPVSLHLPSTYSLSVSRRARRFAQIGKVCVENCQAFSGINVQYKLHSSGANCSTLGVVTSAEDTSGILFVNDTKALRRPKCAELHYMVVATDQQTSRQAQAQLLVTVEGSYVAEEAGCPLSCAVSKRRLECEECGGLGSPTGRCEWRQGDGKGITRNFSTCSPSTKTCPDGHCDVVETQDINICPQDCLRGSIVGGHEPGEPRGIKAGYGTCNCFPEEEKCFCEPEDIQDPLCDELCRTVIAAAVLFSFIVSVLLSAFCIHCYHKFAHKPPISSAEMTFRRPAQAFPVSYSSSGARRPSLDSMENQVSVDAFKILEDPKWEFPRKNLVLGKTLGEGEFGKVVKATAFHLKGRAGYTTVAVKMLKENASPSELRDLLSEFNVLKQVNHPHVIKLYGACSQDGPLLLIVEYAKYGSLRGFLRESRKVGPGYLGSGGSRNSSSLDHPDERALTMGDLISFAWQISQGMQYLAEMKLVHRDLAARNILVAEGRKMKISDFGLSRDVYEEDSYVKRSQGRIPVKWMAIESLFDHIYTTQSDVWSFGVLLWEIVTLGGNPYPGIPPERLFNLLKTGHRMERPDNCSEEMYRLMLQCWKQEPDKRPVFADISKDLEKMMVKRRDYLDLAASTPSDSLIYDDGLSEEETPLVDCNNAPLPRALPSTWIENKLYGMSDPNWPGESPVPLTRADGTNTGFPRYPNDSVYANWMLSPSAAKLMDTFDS", "assay": "Inhibition of RET (unknown origin) preincubated for 10 mins followed by substrate/ATP addition measured after 30 mins by HTRF assay"}, "BaF3 [10]": {"test_system": "BaF3", "assay": "PROTAC activity at CRBN/KIF5B-RET G810C mutant (unknown origin) expressed in mouse BaF3 cells assessed as induction of RET G810C mutant degradation at 1 to 100 nM incubated for 24 hrs by immunoblot analysis relative to control", "assay_type": "cell-based", "settings": "dose 1-100 nM"}, "BaF3 [11]": {"test_system": "BaF3", "assay": "PROTAC activity at CRBN/KIF5B-RET (unknown origin) expressed in mouse BaF3 cells assessed as induction of RET degradation at 20 nM incubated for 8 to 24 hrs by immunoblot analysis", "assay_type": "cell-based", "settings": "time 8-24 hrs"}, "BaF3 [12]": {"test_system": "BaF3", "assay": "PROTAC activity at CRBN/KIF5B-RET (unknown origin) expressed in mouse BaF3 cells assessed as induction of RET degradation at 10 nM incubated for 24 hrs by immunoblot analysis", "assay_type": "cell-based"}, "BaF3 [13]": {"test_system": "BaF3", "assay": "PROTAC activity at CRBN/KIF5B-RET (unknown origin) expressed in mouse BaF3 cells assessed as induction of RET degradation at 10 nM incubated for 24 hrs in presence of MG132 by immunoblot analysis", "assay_type": "cell-based"}, "BaF3 [14]": {"test_system": "BaF3", "assay": "PROTAC activity at CRBN/KIF5B-RET G810C mutant (unknown origin) expressed in mouse BaF3 cells assessed as decrease in Shc activation incubated for 24 hrs by immunoblot analysis", "assay_type": "cell-based", "settings": "dose 1-50 nM"}, "[15]": {"assay": "Induction of apoptosis in mouse BaF3 cells stably expressing KIF5B-RET G810C mutant assessed as late apoptotic cells at 10 nM incubated for 48 hrs by Annexin V-FITC/PI staining based flow cytometry (reference value: 5.99 %)", "assay_type": "functional"}, "[16]": {"assay": "Induction of apoptosis in mouse BaF3 cells stably expressing KIF5B-RET G810C mutant assessed as necrotic cells at 10 nM incubated for 48 hrs by Annexin V-FITC/PI staining based flow cytometry (reference value: 0.94 %)", "assay_type": "functional"}, "[17]": {"assay": "Induction of apoptosis in mouse BaF3 cells stably expressing KIF5B-RET G810C mutant assessed as viable cells at 20 nM incubated for 48 hrs by Annexin V-FITC/PI staining based flow cytometry (reference value: 92.21 %)", "assay_type": "functional", "settings": "read-out: Activity"}, "[18]": {"assay": "Induction of apoptosis in mouse BaF3 cells stably expressing KIF5B-RET G810C mutant assessed as early apoptotic cells at 40 nM incubated for 48 hrs by Annexin V-FITC/PI staining based flow cytometry (reference value: 0.86 %)", "assay_type": "functional"}, "[19]": {"assay": "Induction of apoptosis in mouse BaF3 cells stably expressing KIF5B-RET G810C mutant assessed as late apoptotic cells at 40 nM incubated for 48 hrs by Annexin V-FITC/PI staining based flow cytometry (reference value: 5.99 %)", "assay_type": "functional"}, "[20]": {"assay": "Induction of apoptosis in mouse BaF3 cells stably expressing KIF5B-RET G810C mutant assessed as necrotic cells at 40 nM incubated for 48 hrs by Annexin V-FITC/PI staining based flow cytometry (reference value: 0.94 %)", "assay_type": "functional"}, "[21]": {"assay": "Induction of apoptosis in mouse BaF3 cells stably expressing KIF5B-RET G810C mutant assessed as apoptotic cells at 10 nM incubated for 48 hrs by Annexin V-FITC/PI staining based flow cytometry (reference value: 6.7 %)", "assay_type": "functional"}, "[22]": {"assay": "Half life in Sprague-Dawley rat at 1 mg/kg, iv measured for 24 hrs by LC-MS/MS analysis", "assay_type": "ADME, organism-based", "settings": "in vivo"}, "[23]": {"assay": "Cmax in Sprague-Dawley rat at 1 mg/kg, iv measured for 24 hrs by LC-MS/MS analysis", "assay_type": "ADME, organism-based", "settings": "in vivo"}, "[24]": {"assay": "AUC (0 to infinity) in Sprague-Dawley rat at 1 mg/kg, iv measured for 24 hrs by LC-MS/MS analysis", "assay_type": "ADME, organism-based", "settings": "in vivo"}, "[25]": {"assay": "Volume of distribution at steady state in Sprague-Dawley rat at 1 mg/kg, iv measured for 24 hrs by LC-MS/MS analysis", "assay_type": "ADME, organism-based", "settings": "in vivo, read-out: Vdss"}, "[26]": {"assay": "Clearance in Sprague-Dawley rat at 1 mg/kg, iv measured for 24 hrs by LC-MS/MS analysis", "assay_type": "ADME, organism-based", "settings": "in vivo"}, "[27]": {"assay": "Half life in Sprague-Dawley rat at 10 mg/kg, po measured for 24 hrs by LC-MS/MS analysis", "assay_type": "ADME, organism-based", "settings": "in vivo"}, "[28]": {"assay": "Tmax in Sprague-Dawley rat at 10 mg/kg, po measured for 24 hrs by LC-MS/MS analysis", "assay_type": "ADME, organism-based", "settings": "in vivo"}, "[29]": {"assay": "Cmax in Sprague-Dawley rat at 10 mg/kg, po measured for 24 hrs by LC-MS/MS analysis", "assay_type": "ADME, organism-based", "settings": "in vivo"}, "[30]": {"assay": "AUC (0 to infinity) in Sprague-Dawley rat at 10 mg/kg, po measured for 24 hrs by LC-MS/MS analysis", "assay_type": "ADME, organism-based", "settings": "in vivo"}, "BaF3 [31]": {"test_system": "BaF3", "assay": "Antitumor activity against mouse BaF3 cells stably expressing KIF5B-RET G810C mutant implanted in BALB/c nu/nu mouse at 10 mg/kg, po qd treated for 10 days relative to control", "assay_type": "functional", "settings": "BaF3, 240 h, time 10 day, read-out: TGI"}, "[32]": {"assay": "Toxicity in BALB/c nu/nu mouse implanted with mouse BaF3 cells stably expressing KIF5B-RET G810C mutant assessed as body weight loss at 10 mg/kg, po bid treated for 10 days", "assay_type": "organism-based", "settings": "in vivo, 240 h, time 10 day"}, "[33]": {"test_system": "Kinesin-1 heavy chain/ Tyrosine-protein kinase receptor RET (Homo sapiens), P07949+P33176 [G810C]", "assay": "In vivo PROTAC activity at CRBN/KIF5B-RET G810C mutant (unknown origin) expressed in mouse BaF3 cells implanted in BALB/c nu/nu mouse assessed as induction of RET G810C mutant degradation at 10 mg/kg, po bid treated for 10 days by Western blot analysis", "assay_type": "functional, organism-based", "settings": "time 10.0 day"}},
  "note": "The source made the active and inactive calls. The rule behind the calls is not given here.",
  "data": [
    {"smiles": "COc1ccc(CN2C3CC2CN(c2ccc(-c4cc(N5CCC(N6CCN(CCCC#Cc7cccc8c7CN(C7CCC(=O)NC7=O)C8=O)CC6)CC5)cn5ncc(C#N)c45)cn2)C3)cn1", "note": "(stereo not given)", "values": [
      {"measurement": "IC50", "setting": "BaF3 [1]", "value": 5.2, "unit": "nM"},
      {"measurement": "IC50", "setting": "BaF3 [2]", "value": 5.3, "unit": "nM"},
      {"measurement": "IC50", "setting": "BaF3 [3]", "value": 165, "unit": "nM"},
      {"measurement": "IC50", "setting": "BaF3 [4]", "value": 22.6, "unit": "nM"},
      {"measurement": "IC50", "setting": "BaF3 [5]", "value": 2.4, "unit": "nM"},
      {"measurement": "IC50", "setting": "BaF3 [6]", "value": 4.5, "unit": "nM"},
      {"measurement": "IC50", "setting": "BaF3 [7]", "value": 6.5, "unit": "nM"},
      {"measurement": "IC50", "setting": "HeLa", "value": "> 5000", "unit": "nM"},
      {"measurement": "IC50", "setting": "A549", "value": "> 5000", "unit": "nM"},
      {"measurement": "IC50", "setting": "BaF3 [8]", "value": "> 5000", "unit": "nM"},
      {"measurement": "IC50", "setting": "[9]", "value": 0.371, "unit": "nM"},
      {"measurement": "Emax", "setting": "BaF3 [10]", "value": 91, "unit": "%"},
      {"measurement": "Activity", "setting": "BaF3 [11]", "value": "Active"},
      {"measurement": "Activity", "setting": "BaF3 [12]", "value": "Active"},
      {"measurement": "Activity", "setting": "BaF3 [13]", "value": "inactive"},
      {"measurement": "Activity", "setting": "BaF3 [14]", "value": "Dose-dependent-effect"},
      {"measurement": "Activity", "setting": "[15]", "value": 15.87, "unit": "%"},
      {"measurement": "Activity", "setting": "[16]", "value": 1.45, "unit": "%"},
      {"measurement": "viability at 0.02 µM", "setting": "[17]", "value": 43.4, "unit": "%"},
      {"measurement": "Activity", "setting": "[18]", "value": 56.22, "unit": "%"},
      {"measurement": "Activity", "setting": "[19]", "value": 15.31, "unit": "%"},
      {"measurement": "Activity", "setting": "[20]", "value": 0.54, "unit": "%"},
      {"measurement": "Activity", "setting": "[21]", "value": 34.1, "unit": "%"},
      {"measurement": "half-life", "setting": "[22]", "value": 6.98, "unit": "h"},
      {"measurement": "Cmax", "setting": "[23]", "value": 121, "unit": "ng/mL"},
      {"measurement": "AUC(0-inf)", "setting": "[24]", "value": 295, "unit": "ng·h/mL"},
      {"measurement": "Vd", "setting": "[25]", "value": 31.9, "unit": "L/kg"},
      {"measurement": "clearance", "setting": "[26]", "value": 52.8, "unit": "mL/min/kg"},
      {"measurement": "half-life", "setting": "[27]", "value": 8.21, "unit": "h"},
      {"measurement": "Tmax", "setting": "[28]", "value": 2, "unit": "h"},
      {"measurement": "Cmax", "setting": "[29]", "value": 161, "unit": "ng/mL"},
      {"measurement": "AUC(0-inf)", "setting": "[30]", "value": 1190, "unit": "ng·h/mL"},
      {"measurement": "inhibition in vivo at 10 mg/kg", "setting": "BaF3 [31]", "value": 62.3, "unit": "%"},
      {"measurement": "Activity", "setting": "[32]", "value": "Non-toxic"},
      {"measurement": "Activity", "setting": "[33]", "value": "Active"}
    ]}
  ]
}
